From patent publication US4432974A, “Antiinflammatory and/or analgesic 2,3-diaryl-5-silyl thiophenes” (E. I. Du Pont de Nemours and Company, priority 1982, dated 1984)
Where two headings read alike, the source gives them in different places.

How the values were obtained:
[1] = system: adjuvant-induced arthritis in rats; experiment: Established Adjuvant-Induced Arthritis in Rats; format: in vivo, Charles River Lewis male rats; settings: for ED50: 168 h, read-out: Adjuvant Arthritis ED50 % Decrease From Control Paw Volume
[2] = system: phenylquinone-induced writhing in mice; experiment: Phenylquinone Writhing Test; format: in vivo, female white mice; settings: Mus musculus, read-out: Phenylquinone Writhing ED50
Protocol: A standard procedure for detecting and comparing the analgesic activity of compounds in this series for which there is a good correlation with human efficacy is the standard phenylquinone writhing test modified from Siegmund, et al., Proc. Soc. Exp. Biol. Med., 95, 729 (1957). A test compound suspended in 1% methylcellulose was given orally to fasted (17-21 hours) female white mice, 5-20 animals per double blind test. Aqueous (0.01% phenyl-p-benzoquinone) phenylquinone, 0.20 ml per mouse, was injected intraperitoneally 6 minutes before observations were begun. […] The effective analgesic dose for 50% of the mice (ED50) was calculated by the moving average method of Thompson, W. R., Bact. Rev., 11, 115-145 (1947); the time of peak activity was determined for many of the compounds. Data for some of the compounds is summarized in Tables II and III together with data for some standard analgetic antiinflammatory drugs.

[3] = Table III, oral daily, 7 days, rat, from dose-response regression lines
[4] = Table III, oral, fasted female white mice
[5] = daily oral dose 45 mg/kg, 7 days, rat, footnote 1 p < .001, footnote 2 p < .05 vs control

## C[Si](C)(C)c1cc(-c2ccccc2)c(-c2ccccc2)s1 [Example 4]
[1]; Rattus norvegicus, po
  ED50: 45 mg/kg
[2]; po
  ED50: 15 mg/kg

## COc1ccc(-c2cc([Si](C)(C)OC)sc2-c2ccc(OC)cc2)cc1 [Example 21, 2,3-Bis(4-methoxyphenyl)-5-(methoxydimethylsilyl)thiophene]
[1]; Rattus norvegicus, po
  ED50: 9.8 mg/kg
[2]; po
  ED50: 3.8 mg/kg

## COc1ccc(-c2cc([Si](C)(C)C)sc2-c2ccc(OC)cc2)cc1 [Example 1, 2,3-Bis(4-methoxyphenyl)-5-(trimethylsilyl)thiophene]
[1]; Rattus norvegicus, po
  ED50: 8 mg/kg
[2]; po
  ED50: 0.19 mg/kg

## CCCCC1C(=O)N(c2ccccc2)N(c2ccccc2)C1=O [Phenylbutazone, reference compound]
[1]; [3]
  ED50: 10 mg/kg
[2]; [4]
  ED50: 80 mg/kg

## CC[Si](CC)(CC)c1cc(-c2ccc(OC)cc2)c(-c2ccc(OC)cc2)s1 [Example 10]
[1]; Rattus norvegicus, po
  ED50: 25 mg/kg
[2]; po
  ED50: 5.2 mg/kg

## COc1ccc(-c2cc([Si](C)(C)C(C)(C)C)sc2-c2ccc(OC)cc2)cc1 [Example 11]
[1]; Rattus norvegicus, po
  ED50: 40 mg/kg
[2]; po
  ED50: > 108 mg/kg

## COc1ccc(-c2cc([Si](C)(C)Cc3ccccc3)sc2-c2ccc(OC)cc2)cc1 [Example 13]
[1]; [5]
  Adjuvant Arthritis Percent Decrease From Control Paw Volume: 24%

## COc1ccc2c(c1)c(CC(=O)O)c(C)n2C(=O)c1ccc(Cl)cc1 [Indomethacin, reference compound]
[1]; Rattus norvegicus, po
  ED50: 0.3 mg/kg
[2]; po
  ED50: 0.35 mg/kg

## C=CC[Si](C)(C)c1cc(-c2ccc(OC)cc2)c(-c2ccc(OC)cc2)s1 [Example 8, 2,3-bis(4-methoxyphenyl)-5-[(2-propenyl)dimethylsilyl]thiophene]
[1]; Rattus norvegicus, po
  ED50: 9.4 mg/kg
[2]; po
  ED50: 0.76 mg/kg

## COc1ccc(-c2cc([SiH](C)C)sc2-c2ccc(OC)cc2)cc1 [Example 2, 2,3-Bis(4-methoxyphenyl)-5-(dimethylsilyl)thiophene]
[1]; Rattus norvegicus, po
  ED50: 14.5 mg/kg
[2]; po
  ED50: 2.1 mg/kg

## CSc1ccc(-c2sc([Si](C)(C)C)cc2-c2ccc(F)cc2)cc1 [Example 6]
[1]; daily oral dose 81 mg/kg, 7 days, rat, p < .001 vs control (Student's t)
  Adjuvant Arthritis Percent Decrease From Control Paw Volume: 42%

## COc1ccc(-c2cc([Si](C)(C)CCC(F)(F)F)sc2-c2ccc(OC)cc2)cc1 [Example 9]
[1]; Rattus norvegicus, po
  ED50: 30 mg/kg

## Cc1ccc(-c2cc([Si](C)(C)C)sc2-c2ccc(C)cc2)cc1 [Example 5]
[1]; [5]
  Adjuvant Arthritis Percent Decrease From Control Paw Volume: 44%
[2]; po
  ED50: 135 mg/kg

## COc1ccc(-c2cc([Si](C)(C)c3ccccc3)sc2-c2ccc(OC)cc2)cc1 [Example 12]
[1]; Rattus norvegicus, po
  ED50: 55 mg/kg
[2]; po
  ED50: < 108 mg/kg

## C[Si](C)(C)c1cc(-c2ccc(F)cc2)c(-c2ccc(F)cc2)s1 [Example 3]
[1]; daily oral dose 27 mg/kg, 7 days, rat, p < .001 vs control (Student's t)
  Adjuvant Arthritis Percent Decrease From Control Paw Volume: 37%
[2]; po
  ED50: 4.5 mg/kg

## CC(=O)Oc1ccccc1C(=O)O [Aspirin, reference compound]
[2]; po
  ED50: 135 mg/kg

## C=C[Si](C)(C)c1cc(-c2ccc(OC)cc2)c(-c2ccc(OC)cc2)s1 [Example 7, 2,3-bis(4-methoxyphenyl)-5-(ethenyldimethylsilyl)thiophene]
[1]; Rattus norvegicus, po
  ED50: 6.8 mg/kg
[2]; po
  ED50: 0.23 mg/kg

## CC(C)Cc1ccc(C(C)C(=O)O)cc1 (centres unmarked) [Ibuprofen, reference compound]
[1]; [3]
  ED50: 100 mg/kg
[2]; [4]
  ED50: 10 mg/kg
